Data as given in US10577363B2, “Substituted piperidine compounds” (EPIZYME, INC., priority 2014, dated 2020).

Legend:
SMYD3 [1] = target: T1, SMYD3 (Homo sapiens (Human), UniProt Q9H7B4); experiment: SMYD3 biochemical assay (SPA, 3H-SAM methylation of MEKK2 protein substrate); details: Table 2A; read-out: SMYD3 Biochem IC50
In short: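 Full-length native human SMYD3 (E. coli-expressed, tags removed) preincubated with compounds 30 min at room temperature, then reaction started with 3H-SAM and GST-tagged MEKK2 protein in 25 mM Tris-Cl pH 8.0, 1 mM TCEP, 0.005% BSG, 0.005% Tween 20. Quenched with unlabelled SAM (100 uM final); 3H-MEKK2 counted by SPA.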

SMYD3 [2] = target: T1, SMYD3; experiment: SMYD3 cell assay (Trimethyl-MEKK2 In-Cell Western in 293T/17 cells); format: cell-based; details: Table 2A; read-out: SMYD3 Cell IC50
In short: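 In-Cell Western ratio of trimethyl-Lys260 MEKK2 to anti-flag signal; percent inhibition from DMSO and maximum-inhibition controls, IC50 by non-linear regression, triplicates.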

T1 sequence (Q9H7B4 whole entry): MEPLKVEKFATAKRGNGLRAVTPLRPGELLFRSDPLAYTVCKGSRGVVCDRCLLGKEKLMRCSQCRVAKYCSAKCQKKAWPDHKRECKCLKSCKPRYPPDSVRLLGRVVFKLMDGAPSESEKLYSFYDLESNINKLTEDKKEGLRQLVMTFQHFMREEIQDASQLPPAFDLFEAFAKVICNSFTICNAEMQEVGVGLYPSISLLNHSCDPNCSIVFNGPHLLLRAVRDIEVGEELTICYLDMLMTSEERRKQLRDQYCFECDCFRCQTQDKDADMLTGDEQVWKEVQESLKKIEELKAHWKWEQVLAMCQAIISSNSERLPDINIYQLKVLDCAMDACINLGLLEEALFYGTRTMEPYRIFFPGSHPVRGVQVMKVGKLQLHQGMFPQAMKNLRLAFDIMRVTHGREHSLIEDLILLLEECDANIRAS

**Q.** Which results are given for `CN1C2CC1CN(S(=O)(=O)N1[C@@H]3CC[C@H]1C[C@@H](NC(=O)c1cc(C4CC4)on1)C3)C2` [compound 582, 5-cyclopropyl-N-((1R,3r,5S)-8-((6-methyl-3,6-diazabicyclo[3.1.1]heptan-3-yl)sulfonyl)-8-azabicyclo[3.2.1]octan-3-yl)isoxazole-3-carboxamide]?
**A.** IC50 (SMYD3 [1]): 10.1 nM; IC50 (SMYD3 [2]): 151 nM

**Q.** Which results are given for `COCCN1CCC(CS(=O)(=O)N2CC[C@@H](NC(=O)c3cc(C4CC4)on3)C[C@H]2C)CC1` [compound 583, 5-cyclopropyl-N-((2R,4R)-1-(((1-(2-methoxyethyl)piperidin-4-yl)methyl)sulfonyl)-2-methylpiperidin-4-yl)isoxazole-3-carboxamide]?
**A.** IC50 (SMYD3 [1]): 10.4 nM; IC50 (SMYD3 [2]): 234 nM

**Q.** What does the source list for `CC[C@H]1CN(S(=O)(=O)N2CC[C@H](NC(=O)c3cc(C4CC4)on3)C[C@@H]2C)CCN1` [compound 584, 5-cyclopropyl-N-((2S,4S)-1-(((S)-3-ethylpiperazin-1-yl)sulfonyl)-2-methylpiperidin-4-yl)isoxazole-3-carboxamide]?
**A.** IC50 (SMYD3 [1]): 10.5 nM; IC50 (SMYD3 [2]): 159 nM

**Q.** How did the IC50 (SMYD3 [1]) turn out when `C[C@H]1C[C@@H](NC(=O)c2cc(C3CC3)on2)CCN1S(=O)(=O)N1CCCNCC1` [compound 585, N-((2S,4S)-1-((1,4-diazepan-1-yl)sulfonyl)-2-methylpiperidin-4-yl)-5-cyclopropylisoxazole-3-carboxamide] was run?
**A.** 10.6 nM

**Q.** And the IC50 (SMYD3 [2])?
**A.** 186 nM

**Q.** `CN(CCN)CCCS(=O)(=O)N1[C@@H]2CC[C@H]1C[C@@H](NC(=O)c1cc(C3CC3)on1)C2` [compound 586, N-((1R,3r,5S)-8-((3-((2-aminoethyl)(methyl)amino)propyl)sulfonyl)-8-azabicyclo[3.2.1]octan-3-yl)-5-cyclopropylisoxazole-3-carboxamide] was tested. Which IC50 (SMYD3 [1]) did it give?
**A.** 10.7 nM

**Q.** And the IC50 (SMYD3 [2])?
**A.** 263 nM

**Q.** How did the IC50 (SMYD3 [1]) turn out when `C[C@H]1C[C@@H](NC(=O)c2cc(C3CC3)on2)CCN1S(=O)(=O)CC1CCN(CCN2CCOCC2)CC1` [compound 587, 5-cyclopropyl-N-((2S,4S)-2-methyl-1-(((1-(2-morpholinoethyl)piperidin-4-yl)methyl)sulfonyl)piperidin-4-yl)isoxazole-3-carboxamide] was run?
**A.** 10.7 nM

**Q.** What about the IC50 (SMYD3 [2]) of the same compound?
**A.** 311 nM

**Q.** With `C[C@H]1C[C@@H](NC(=O)c2cc(C3CC3)on2)CCN1S(=O)(=O)N1CC2CC(C1)N2` [compound 588, N-((2S,4S)-1-((3,6-diazabicyclo[3.1.1]heptan-3-yl)sulfonyl)-2-methylpiperidin-4-yl)-5-cyclopropylisoxazole-3-carboxamide] as the compound, how does the IC50 (SMYD3 [1]) read?
**A.** 10.8 nM

**Q.** And the IC50 (SMYD3 [2])?
**A.** 151 nM

**Q.** How did the IC50 (SMYD3 [1]) turn out when `C[C@@H]1C[C@H](NC(=O)c2cc(C3CC3)on2)CCN1S(=O)(=O)CC1CCN(CCO)CC1` [compound 589, 5-cyclopropyl-N-((2R,4R)-1-(((1-(2-hydroxyethyl)piperidin-4-yl)methyl)sulfonyl)-2-methylpiperidin-4-yl)isoxazole-3-carboxamide] was run?
**A.** 10.9 nM

**Q.** And the IC50 (SMYD3 [2])?
**A.** 152 nM

**Q.** What does the source list for `CN(C)CCNCCCS(=O)(=O)N1[C@@H]2CC[C@H]1C[C@@H](NC(=O)c1cc(C3CC3)on1)C2` [compound 590, 5-cyclopropyl-N-((1R,3r,5S)-8-((3-((2-(dimethylamino)ethyl)amino)propyl)sulfonyl)-8-azabicyclo[3.2.1]octan-3-yl)isoxazole-3-carboxamide]?
**A.** IC50 (SMYD3 [1]): 10.9 nM; IC50 (SMYD3 [2]): 175 nM

**Q.** How did the IC50 (SMYD3 [1]) turn out when `CNCCCS(=O)(=O)N1[C@@H]2CC[C@H]1C[C@@H](NC(=O)c1cc(C3CC3)on1)C2` [compound 591, 5-cyclopropyl-N-((1R,3r,5S)-8-((3-(methylamino)propyl)sulfonyl)-8-azabicyclo[3.2.1]octan-3-yl)isoxazole-3-carboxamide] was run?
**A.** 11.1 nM

**Q.** And the IC50 (SMYD3 [2])?
**A.** 150 nM

**Q.** What does the source list for `C[C@H]1C[C@@H](NC(=O)c2cc(C3CC3)on2)CCN1S(=O)(=O)N1C[C@@H]2C[C@H]1CN2C` [compound 592, 5-cyclopropyl-N-((2S,4S)-2-methyl-1-(((1S,4S)-5-methyl-2,5-diazabicyclo[2.2.1]heptan-2-yl)sulfonyl)piperidin-4-yl)isoxazole-3-carboxamide]?
**A.** IC50 (SMYD3 [1]): 11.6 nM; IC50 (SMYD3 [2]): 106 nM

**Q.** With `CN(C)CCCS(=O)(=O)N1[C@@H]2CC[C@H]1C[C@@H](NC(=O)c1cc(C3CC3)on1)C2` [compound 593, 5-cyclopropyl-N-((1R,3r,5S)-8-((3-(dimethylamino)propyl)sulfonyl)-8-azabicyclo[3.2.1]octan-3-yl)isoxazole-3-carboxamide] as the compound, how does the IC50 (SMYD3 [1]) read?
**A.** 11.8 nM

**Q.** And the IC50 (SMYD3 [2])?
**A.** 147 nM

**Q.** What does the source list for `O=C(N[C@H]1C[C@H]2CC[C@@H](C1)N2S(=O)(=O)NC1CC2(CNC2)C1)c1cc(C2CC2)on1` [compound 594, N-((1R,3r,5S)-8-(N-(2-azaspiro[3.3]heptan-6-yl)sulfamoyl)-8-azabicyclo[3.2.1]octan-3-yl)-5-cyclopropylisoxazole-3-carboxamide]?
**A.** IC50 (SMYD3 [1]): 12 nM; IC50 (SMYD3 [2]): 669 nM

**Q.** How did the IC50 (SMYD3 [1]) turn out when `C[C@@H]1CN(S(=O)(=O)N2CCNCC2)[C@H](C)C[C@@H]1NC(=O)c1cc(C2CC2)on1` [compound 595, 5-cyclopropyl-N-((2R,4S,5R)-2,5-dimethyl-1-(piperazin-1-ylsulfonyl)piperidin-4-yl)isoxazole-3-carboxamide] was run?
**A.** 12.6 nM

**Q.** And the IC50 (SMYD3 [2])?
**A.** 77.8 nM

**Q.** `NCCNCCS(=O)(=O)N1[C@@H]2CC[C@H]1C[C@@H](NC(=O)c1cc(C3CC3)on1)C2` [compound 596, N-((1R,3r,5S)-8-((2-((2-aminoethyl)amino)ethyl)sulfonyl)-8-azabicyclo[3.2.1]octan-3-yl)-5-cyclopropylisoxazole-3-carboxamide] was tested. Which IC50 (SMYD3 [1]) did it give?
**A.** 12.8 nM

**Q.** What about the IC50 (SMYD3 [2]) of the same compound?
**A.** 379 nM

**Q.** For `O=C(N[C@H]1C[C@H]2CC[C@@H](C1)N2S(=O)(=O)CCCN1CCCC1)c1cc(C2CC2)on1` [compound 597, 5-cyclopropyl-N-((1R,3r,5S)-8-((3-(pyrrolidin-1-yl)propyl)sulfonyl)-8-azabicyclo[3.2.1]octan-3-yl)isoxazole-3-carboxamide], which IC50 (SMYD3 [1]) is on record?
**A.** 12.9 nM

**Q.** And the IC50 (SMYD3 [2])?
**A.** 217 nM

**Q.** What does the source list for `CN(CCN)CCS(=O)(=O)N1[C@@H]2CC[C@H]1C[C@@H](NC(=O)c1cc(C3CC3)on1)C2` [compound 598, N-((1R,3r,5S)-8-((2-((2-aminoethyl)(methyl)amino)ethyl)sulfonyl)-8-azabicyclo[3.2.1]octan-3-yl)-5-cyclopropylisoxazole-3-carboxamide]?
**A.** IC50 (SMYD3 [1]): 13.1 nM; IC50 (SMYD3 [2]): 431 nM

**Q.** `CN(C)CCNCCS(=O)(=O)N1[C@@H]2CC[C@H]1C[C@@H](NC(=O)c1cc(C3CC3)on1)C2` [compound 599, 5-cyclopropyl-N-((1R,3r,5S)-8-((2-((2-(dimethylamino)ethyl)amino)ethyl)sulfonyl)-8-azabicyclo[3.2.1]octan-3-yl)isoxazole-3-carboxamide] was tested. Which IC50 (SMYD3 [1]) did it give?
**A.** 13.5 nM

**Q.** And the IC50 (SMYD3 [2])?
**A.** 213 nM

**Q.** With `CC1(C)CN(S(=O)(=O)N2[C@@H]3CC[C@H]2C[C@@H](NC(=O)c2cc(C4CC4)on2)C3)CCN1` [compound 600, 5-cyclopropyl-N-((1R,3r,5S)-8-((3,3-dimethylpiperazin-1-yl)sulfonyl)-8-azabicyclo[3.2.1]octan-3-yl)isoxazole-3-carboxamide] as the compound, how does the IC50 (SMYD3 [1]) read?
**A.** 13.5 nM

**Q.** And the IC50 (SMYD3 [2])?
**A.** 118 nM

**Q.** Which results are given for `C[C@H]1CN(S(=O)(=O)CCCN)[C@@H](C)C[C@H]1NC(=O)c1cc(C2CC2)on1` [compound 601, N-((2S,4R,5S)-1-((3-aminopropyl)sulfonyl)-2,5-dimethylpiperidin-4-yl)-5-cyclopropylisoxazole-3-carboxamide]?
**A.** IC50 (SMYD3 [1]): 14.3 nM; IC50 (SMYD3 [2]): 333 nM

**Q.** Which IC50 (SMYD3 [1]) does the source give for `O=C(N[C@H]1C[C@H]2CC[C@@H](C1)N2S(=O)(=O)N1C2CCC1CNC2)c1cc(C2CC2)on1` [compound 602, N-((1R,3r,5S)-8-((3,8-diazabicyclo[3.2.1]octan-8-yl)sulfonyl)-8-azabicyclo[3.2.1]octan-3-yl)-5-cyclopropylisoxazole-3-carboxamide] here?
**A.** 14.5 nM

**Q.** And the IC50 (SMYD3 [2])?
**A.** 132 nM

**Q.** What does the source list for `CN(C)CCN(C)CCS(=O)(=O)N1[C@@H]2CC[C@H]1C[C@@H](NC(=O)c1cc(C3CC3)on1)C2` [compound 603, 5-cyclopropyl-N-((1R,3r,5S)-8-((2-((2-(dimethylamino)ethyl)(methyl)amino)ethyl)sulfonyl)-8-azabicyclo[3.2.1]octan-3-yl)isoxazole-3-carboxamide]?
**A.** IC50 (SMYD3 [1]): 14.7 nM; IC50 (SMYD3 [2]): 239 nM

**Q.** What does the source list for `COCCNCCCS(=O)(=O)N1[C@@H]2CC[C@H]1C[C@@H](NC(=O)c1cc(C3CC3)on1)C2` [compound 604, 5-cyclopropyl-N-((1R,3r,5S)-8-((3-((2-methoxyethyl)amino)propyl)sulfonyl)-8-azabicyclo[3.2.1]octan-3-yl)isoxazole-3-carboxamide]?
**A.** IC50 (SMYD3 [1]): 16.2 nM; IC50 (SMYD3 [2]): 200 nM

**Q.** What does the source list for `CNCCNCCS(=O)(=O)N1[C@@H]2CC[C@H]1C[C@@H](NC(=O)c1cc(C3CC3)on1)C2` [compound 605, 5-cyclopropyl-N-((1R,3r,5S)-8-((2-((2-(methylamino)ethyl)amino)ethyl)sulfonyl)-8-azabicyclo[3.2.1]octan-3-yl)isoxazole-3-carboxamide]?
**A.** IC50 (SMYD3 [1]): 17.5 nM; IC50 (SMYD3 [2]): 302 nM

**Q.** What does the source list for `CN1CCC(N(C)S(=O)(=O)N2[C@@H]3CC[C@H]2C[C@@H](NC(=O)c2cc(C4CC4)on2)C3)CC1` [compound 606, 5-cyclopropyl-N-((1R,3r,5S)-8-(N-methyl-N-(1-methylpiperidin-4-yl)sulfamoyl)-8-azabicyclo[3.2.1]octan-3-yl)isoxazole-3-carboxamide]?
**A.** IC50 (SMYD3 [1]): 17.7 nM; IC50 (SMYD3 [2]): 235 nM

**Q.** `CC(C)N1CCC(CS(=O)(=O)N2CC[C@@H](NC(=O)c3cc(C4CC4)on3)C[C@H]2C)CC1` [compound 607, 5-cyclopropyl-N-((2R,4R)-1-(((1-isopropylpiperidin-4-yl)methyl)sulfonyl)-2-methylpiperidin-4-yl)isoxazole-3-carboxamide] was tested. Which IC50 (SMYD3 [1]) did it give?
**A.** 17.8 nM

**Q.** And the IC50 (SMYD3 [2])?
**A.** 1170 nM

**Q.** For `C[C@H]1CN(S(=O)(=O)CC2CCN(CCCO)CC2)CC[C@H]1NC(=O)c1cc(C2CC2)on1` [compound 608, 5-cyclopropyl-N-((3S,4R)-1-(((1-(3-hydroxypropyl)piperidin-4-yl)methyl)sulfonyl)-3-methylpiperidin-4-yl)isoxazole-3-carboxamide], which IC50 (SMYD3 [1]) is on record?
**A.** 17.8 nM

**Q.** What about the IC50 (SMYD3 [2]) of the same compound?
**A.** 225 nM
